Results reported in patent US20020119939A1, “Stable aqueous deoxyfructosazine solution” (priority 2000, published 2002).

Test: study of the stability of aqueous deoxyfructosazine solutions (HPLC)
Assay type: physicochemical
Settings: 1 mg/ml solution
Method: The study of the stability of aqueous deoxyfructosazine solutions was carried out according to the following protocol:
A deoxyfructosazine solution (1 mg/ml) is prepared using an aqueous 0.05M phosphoric acid solution. Samples of the solution are adjusted to pH 2, 3, 4, 5, 6, 7, 8 and 9 by addition of sodium hydroxide. The solutions thus obtained are stored in glass bottles protected from the light, at 4° C. (control solution), 25° C., 45° C. and 60° C. After 2, 7 and 15 days, the samples are diluted 5-fold with a 20 mM, pH 7 phosphate buffer and the stability is examined by high pressure liquid chromatography (HPLC).

Question: With `OC[C@@H](O)[C@@H](O)[C@H](O)c1cnc(C[C@H](O)[C@H](O)CO)cn1` [deoxyfructosazine, 2-((1R, 2S, 3R)1,2,3,4-tetrahydroxybutyl)-5-((2′S, 3′R)2′, 3′, 4′-trihydroxy-butylpyrazine)] as the molecule, how does the “% of decomposition product calculated relative to the total area of the peaks, Product A” value (pH 2, stored 15 days at 45° C.) read?
Answer: Its value is 1.52%.

Question: And the “% of decomposition product calculated relative to the total area of the peaks, Product A” value (pH 2, stored 15 days at 60° C.)?
Answer: The value was 6.94%.

Question: And the “% of decomposition product calculated relative to the total area of the peaks, Product B” value (pH 2, stored 15 days at 60° C.)?
Answer: Its value is 0.02%.

Question: And the “% of decomposition product calculated relative to the total area of the peaks, Product A” value (pH 3, stored 15 days at 45° C.)?
Answer: The value was 0.16%.

Question: What about the “% of decomposition product calculated relative to the total area of the peaks, Product A” value (pH 3, stored 15 days at 60° C.) of the same molecule?
Answer: The value was 0.87%.

Question: What about the “% of decomposition product calculated relative to the total area of the peaks, Product B” value (pH 3, stored 15 days at 60° C.) of the same molecule?
Answer: Its value is 0.03%.

Question: What about the “% of decomposition product calculated relative to the total area of the peaks, Product A” value (pH 4, stored 15 days at 60° C.) of the same molecule?
Answer: The value was 0.07%.

Question: What about the “% of decomposition product calculated relative to the total area of the peaks, Product B” value (pH 4, stored 15 days at 60° C.) of the same molecule?
Answer: The value was 0.05%.

Question: What about the “% of decomposition product calculated relative to the total area of the peaks, Product B” value (pH 5, stored 15 days at 45° C.) of the same molecule?
Answer: The value was 0.03%.

Question: What about the “% of decomposition product calculated relative to the total area of the peaks, Product B” value (pH 5, stored 15 days at 60° C.) of the same molecule?
Answer: Its value is 0.24%.

Question: And the “% of decomposition product calculated relative to the total area of the peaks, Product B” value (pH 6, stored 15 days at 45° C.)?
Answer: Its value is 0.21%.

Question: And the “% of decomposition product calculated relative to the total area of the peaks, Product B” value (pH 6, stored 15 days at 60° C.)?
Answer: Its value is 0.71%.

Question: What about the “% of decomposition product calculated relative to the total area of the peaks, Product B” value (pH 7, stored 15 days at 45° C.) of the same molecule?
Answer: Its value is 0.69%.

Question: And the “% of decomposition product calculated relative to the total area of the peaks, Product B” value (pH 7, stored 15 days at 60° C.)?
Answer: The value was 13.9%.

Question: And the “% of decomposition product calculated relative to the total area of the peaks, Product B” value (pH 8, stored 15 days at 45° C.)?
Answer: The value was 0.95%.

Question: What about the “% of decomposition product calculated relative to the total area of the peaks, Product B” value (pH 8, stored 15 days at 60° C.) of the same molecule?
Answer: The value was 37.9%.

Question: And the “% of decomposition product calculated relative to the total area of the peaks, Product B” value (pH 9, stored 15 days at 45° C.)?
Answer: Its value is 1.92%.

Question: And the “% of decomposition product calculated relative to the total area of the peaks, Product B” value (pH 9, stored 15 days at 60° C.)?
Answer: The value was 37.7%.
